Measured values taken from patent US7652037B2, “Methods of lowering lipid levels in a mammal” (City Of Hope, priority 2003, dated 2010).
“Also recorded” adds a separate entry of the source.

Legend:
STZ-Diabetic Rats [1] = test: Total plasma/serum triglycerides and cholesterol in STZ-diabetic rats (Example 2); assay type: in vivo, rat; settings: 32 weeks, towards levels of non-diabetic animals
Protocol: Male Sprague-Dawley rats (about 175 to 200 g) were adapted for one week prior to treatment, then rendered diabetic by intra-peritoneal injection of STZ (65 mg/kg in citrate buffer, pH 4.5) after an overnight fast. Control (non-diabetic) animals were injected with the buffer only. Diabetes was confirmed by measuring the plasma glucose concentrations 7 days after Streptozotocin (STZ)-injection. Only animals with a plasma glucose concentration greater than 20 mmol were classified as diabetic and used in the study. These diabetic rats were divided randomly into an untreated diabetic control group and a diabetic treatment group. The treatment group received an LR compound at 50 mg/l in their drinking water throughout the duration of the study (32 weeks for LR-90; 30 weeks for LR-9 and LR-74). All animals were housed individually and were given free access to food and water.
Blood (from the tail vein) and urine samples were collected from rats for glycemic control analysis and albuminuria measurements. Glycemia was monitored every 8 weeks by measuring plasma glucose and glycated hemoglobin. Plasma or serum also was tested for total cholesterol and total triglycerides. Progression of renal dysfunction was assessed by measuring urinary albumin to creatinine ratio (UA/Cr) and serum or plasma creatinine. […]

STZ-Diabetic Rats [2] = test: Kidney anatomy and histopathology (PAS, trichrome, Picrosirius red, TEM); assay type: in vivo, rat
Description: To quantitate glomerulosclerosis (defined as glomerular basement membrane thickening, mesangial hypertrophy, and capillary occlusion), kidney sections were stained with periodic acid Schiff (PAS) reagent. A total of 150 glomeruli were randomly chosen from each rat kidney (four different kidneys per treatment) and carefully graded for sclerosis, by a blinded evaluator. The degree of sclerosis in each glomerulus was graded subjectively on a scale of 1 to 4 as follows: grade 1, sclerotic area less than 25%; grade 2, sclerotic area 25-50%; grade 3, sclerotic area 51-75%; and grade 4, sclerotic area more than 75%. The glomerulosclerotic index (GSI) then was calculated using the following formula: GSI=Σ^4i=1 Fi (I), where Fi is the percentage of glomeruli in the rat with a given score of (I). See Wilkinson-Berka et al., Diabetes 51:3283-3289, 2002. To quantitate glomerulosclerosis, kidney sections were stained with periodic acid Schiff (PAS) reagent.
Cellular infiltrates were identified in the renal interstitium from 5 μm-thick kidney sections stained with PAS. Infiltrates in each kidney sample were graded as follows: + (patchy and light), ++ (patchy and dense), +++ (diffuse and dense with aggregates of neutrophils in tubules or in interstitium) also in a blinded manner. For collagen deposition staining in the kidneys, paraffin sections were randomly chosen from kidneys from each treatment group and stained with Masson's trichrome. Briefly, the sections were deparaffined, hydrated with water, and immersed in Mordant in Boiuin's solution for 10 minutes. The sections then were rinsed in water and stained with Mayer's hematoxylin for 6 minutes. After rinsing in water, Biebrich scarlet-acid fuchsin was added for 2 minutes, rinsed, phosphomolybdic-phosphotungstic solution added for 15 minutes, followed by aniline blue solution for 10 minutes. After rinsing the sections with water, glacial acetic acid was added for 20 seconds and then the slides were dehydrated with 95% ethanol. With this method, blue and red colors indicate collagen and cytoplasm staining, respectively. […]

STZ-Diabetic Rats [3] = test: AGE immunohistochemistry of kidney (6D12 anti-CML antibody); assay type: in vivo, rat
Protocol: For immunohistochemical AGE staining, formalin-fixed […] embedded sections (2 μm thick) were mounted on slides coated with 2-aminopropyltriethoxy silane, baked for 3 hours at 58° C., deparaffinized, rinsed with 3% hydrogen peroxide, and incubated with Proteinase K (0.5 mg/mL) for 5 minutes at room temperature. These sections were washed with rinse buffer and blocked with Protein Blocking Agent for 5 minutes and subsequently incubated with 6D12 anti-AGE mouse monoclonal antibody specific for CML for 30 minutes at room temperature. After washing with rinse buffer, the sections were incubated with EnVision™ with labeled polymer peroxidase-conjugated mouse anti-IgG for 30 minutes at room temperature, followed by detection with 3,3′-diaminobenzidine tetrahydrochloride solution as chromogen and 50% hematoxylin as counterstain.

STZ-Diabetic Rats [4] = test: Nitrotyrosine staining of kidney; assay type: in vivo, rat
Protocol: Nitrotyrosine, a marker for protein oxidation, was used as an index of oxidative tissue damage caused by reactive nitrogen species. Immunohistochemical detection of nitrotyrosine was performed as reported previously (Forbes et al., Diabetes 51:3274-3282, 2002) and followed in this study with little modification. Briefly, formalin-fixed kidney sections (5 μm thick), taken from representative rats from each treatment group at 32 weeks, were mounted on slides, dewaxed and hydrated. After incubation with Proteinase K for 10 minutes, sections were incubated in 3% hydrogen peroxide for 20 minutes, blocked with normal porcine serum for 20 minutes, and then stained with commercially available rabbit polyclonal anti-nitrotyrosine antibodies for 1 hour. After rinsing with DAKO rinse buffer, sections were incubated with biotinylated anti-rabbit IgG for 25 minutes, followed by incubation with avidin-biotin horseradish peroxidase complex for 25 minutes.

[5] = Superoxide production, methylglyoxal with N-α-acetyl-lysine, WST-1 assay
Protocol: The superoxide radical scavenging activity of the compounds was evaluated using the WST-1 method described in Ukeda et al., Anal. Sci. 18:1151-1154, 2002. Briefly, methylglyoxal, was incubated with or without N-α-acetyl-lysine in 0.05 M chelex-treated sodium phosphate buffer, pH 7.4, in the presence of various concentrations of the inhibitor compounds. The production of superoxide was monitored spectrophotometrically at 438 nm, and compared with superoxide dismutase and Tiron, two known superoxide radical scavengers.

methylene bis(4,4′-(2-chlorophenylureidophenoxyisobutyric acid) [LR-90]
reduction of serum cholesterol (STZ-Diabetic Rats [1]): 50% | reduction of serum triglycerides (STZ-Diabetic Rats [1]): 50% | basement membrane thickening (TEM photographs) (STZ-Diabetic Rats [2]): reduced basement membrane thickening | cellular infiltrates in the renal interstitium (STZ-Diabetic Rats [2]): prevented cell infiltration; also recorded: no neutrophils were detected | collagen deposited inside the glomeruli and the tubulointerstitium (Picrosirius red) (STZ-Diabetic Rats [2]; 32 weeks): reduced | AGE staining in kidney glomeruli and cortical tubules (STZ-Diabetic Rats [3]): visibly reduced | nitrotyrosine staining in renal cortical tubules (STZ-Diabetic Rats [4]): decreased the overall oxidative damage

CC(Oc1cccc2cccnc12)C(=O)O (centres unmarked) [LR-74, 2-(8-quinolinoxy) propionic acid]
effect on superoxide production [5]: little or no effect
